Experimental data: patent US12102651B1, “Solvent-based method for making nanocomposite pharmaceutical material” (Imam Abdulrahman Bin Faisal University, priority 2022, dated 2024)

Tests used:
[1] = system: human colorectal carcinoma (HCT-116) cells; assay: MTT cell viability assay on HCT-116 cells; assay type: cell-based
Experimental: (§1) Two cancer cell lines, namely, HCT-116 and HeLa were considered to study the impact of samples (medicinal nanocomposite) on viability and proliferation of such cell lines. A non-cancer cell line, embryonic kidney cells (HEK-293), was considered as a control cell line. HCT-116, HeLa and HEK-293 are collectively referred to as ‘the cells’ or individually as ‘the cell’ unless otherwise specified. The cells were cultured and maintained in the Dulbecco's Modified Eagle Media (DMEM), L-glutamine (5%), penicillin (1%), streptomycin (1%), Fetal bovine serum (FBS) (10%), and selenium chloride (1%). The cells were grown in 96 well plates in a 5% CO2 incubator (Thermo Fisher Scientific, Inc., Waltham, MA, USA) at 37° C., and 75-80% confluence cells and the cells processed for further assay.
A MTT assay is a colorimetric assay for measuring cell metabolic activity. […]
In control and nano formulation treated cells, MTT (5 mg/ml) was added, and the cells were further incubated in a CO2 incubator for 4 hours. Further, the cell culture media was replaced with dimethyl sulfoxide (DMSO) (1%), and the 96-well plate was further examined under an enzyme-linked immunoassay (ELISA) plate reader (Biotek Instruments, USA) at a wavelength of 570 nm. The percentage of cell viability was calculated for a statistical analysis. […]

[2] = system: human cervical cancer (HeLa) cells; assay: MTT cell viability assay on HeLa cells; assay type: cell-based; conditions: for effect on HeLa cell viability, growth and proliferation (in words): 48 hours, 5.0 to 50 μg/ml
Experimental: as §1
A MTT assay is a colorimetric assay for measuring cell metabolic activity. The MTT assay is based on the ability of nicotinamide adenine dinucleotide phosphate (NADPH)-dependent cellular oxidoreductase enzymes to reduce the tetrazolium dye MTT to insoluble formazan, which has a purple colour. […] In control group, MSS, 1 wt. % Ag/MSS, 2 wt. % Ag/MSS, 4 wt. % Ag/MSS, 6 wt. % Ag/MSS, Ag-silicalite, and CP were […] and after 48 hours, the cells were incubated in MTT (Sigma-Aldrich, St. Louis, MO, USA) for 4 hours.
In control and nano formulation treated cells, MTT (5 mg/ml) was added, and the cells were further incubated in a CO2 incubator for 4 hours. Further, the cell culture media was replaced with dimethyl sulfoxide (DMSO) (1%), and the 96-well plate was further examined under an enzyme-linked immunoassay (ELISA) plate reader (Biotek Instruments, USA) at a wavelength of 570 nm. The percentage of cell viability was calculated for a statistical analysis. ANOVA were used to analyze the data. All the analysis was run on GraphPad Prism software. P value less than 0.05 was taken as significant difference in results.

HCT-116 cells = assay: Apoptotic DAPI staining assay on HCT-116 cells; assay type: cell-based, human; conditions: HCT-116, 25 μg/ml, 48-hour treatment
Source text: DAPI is a fluorescent dye used to distinguish between live and dead cells. In live cells, the dye pass through a membrane less effectively. Therefore, the DAPI staining assay is an effective marker to identify the cell viability based on the cell structural changes. The morphology changes of cancer nuclear structure due to treatments of MSS, 1 wt. % Ag/MSS, 2 wt. % Ag/MSS, 4 wt. % Ag/MSS, 6 wt. % Ag/MSS, Ag-silicalite, and CP were examined by the DAPI staining assay. Cells were divided into two groups such as a control group and an experimental group. The control group was without nano formulation and CP treatments. In the experimental group, 1 wt. % Ag/MSS, 2 wt. % Ag/MSS, 4 wt. % Ag/MSS, 6 wt. % Ag/MSS, Ag-silicalite, and CP (25 μg/ml) were added.
Post 48-hour treatment, the control and experimental groups were exposed to ice-cold (4%) paraformaldehyde and further with Triton X-100 in the PBS solution. The cells were stained with DAPI (1.0 μg/ml) for 5 minutes under a dark environment, and the cells were finally washed with the PBS solution and cover slipped. A deoxyribonucleic acid (DNA) staining was examined by using confocal scanning microscope (Zeiss, Germany). The data presented as mean (±) standard deviation (SD) obtained from triplicates and one-way ANOVA followed by Dennett's post hoc test with GraphPad Prism Software (GraphPad Software, USA) for final statistical analysis.

[3] = system: Pseudomonas aeruginosa ATCC27853; assay: Broth dilution MIC/MBC against Pseudomonas aeruginosa; assay type: cell-based; conditions: P. aeruginosa, 24 h, 37° C.
Experimental: (§2) Bacterial strains of Pseudomonas aeruginosa ATCC27853 (gram-negative) and Staphylococcus aureus ATCC25923 (gram-positive) were subjected to antibacterial studies. The bacteria were sub-cultured and maintained on Mueller Hinton Agar (MHA). A stock solution of the nanomaterial (8 mg/ml) was sonicated for 10 minutes in Mueller Hinton Broth (MHB) to obtain a homogenized solution for an antibacterial assay. Inoculum was prepared by adjusting the cell number to 1.5×10^8 colony forming unit per milliliter (CFU per ml) by using freshly grown strains, grown overnight at 37° C. […] About 100 μL of adjusted inoculum was inoculated into each tube and were further incubated for 24 h (at 37° C.) with agitation of 120 rotations per minute (rpm). A control tube of bacteria, also referred as control, had no nanomaterial. 10 μL extracted from the tubes were put on prepared MHA plates and further incubated at the same conditions. After the completion of incubation duration, the MHA plates were recorded for MIC and MBC values. MIC was taken as the lowest concentration of nanomaterial that inhibited 90% of the bacterial growth. However, MBC was recorded as the lowest concentration that killed the bacterial cells or had CFU less than three. […]

[4] = system: Staphylococcus aureus ATCC25923; assay: Broth dilution MIC/MBC against Staphylococcus aureus; assay type: cell-based; conditions: S. aureus, 24 h, 37° C.
Experimental: as §2

Compound | effect on HCT-116 cell viability, growth and proliferation (in words) ([1]; 48 hours, 5.0 to 50 μg/ml) | inhibitory concentration (IC50) ([1]; HCT-116 cells, 48 hours treatment) [µg/mL] | effect on HeLa cell viability, growth and proliferation (in words) [2] | effect on HeLa cell viability, growth and proliferation (in words) ([2]; listed as cisplatin) | inhibitory concentration (IC50) ([2]; HeLa cells, 48 hours treatment) [µg/mL] | number of DAPI stained colon cancer cells versus control (in words) (HCT-116 cells) | antibacterial activity, MIC/MBC (in words) [3] | antibacterial activity, MIC/MBC (in words) [4]
N.N.[Cl][Pt][Cl] [CP, cisplatin] | dose-dependent inhibitory action | 13 | dose-dependent inhibitory action | significant decrease | 13 | significant decrease in the number of colon cancer cells | – | –
O=[N+]([O-])[O-].[Ag+] [AgNO3, Silver nitrate] | – | – | – | – | – | – | showed effectiveness | showed effectiveness
